As a reminder, the IC50 is the midpoint of a concentration-inhibition curve.

We go through 25 molecules from patent US6984649B1, “Pyridine derivatives” (Bayer Aktiengesellschaft, priority 2000, dated 2006).

Counter-ions that a name gives are not always drawn.

The experiment has as its target T1, human IKK-β (Homo sapiens, UniProt O14920).
T1 construct: A cDNA fragment encoding human IKK-β open reading frame was generated by PCR; His tag (from pcDNA3.1/His C); made in house; host or cells: Sf21 insect cells (baculovirus); substrate made in E. coli
T1 sequence (O14920 1-756): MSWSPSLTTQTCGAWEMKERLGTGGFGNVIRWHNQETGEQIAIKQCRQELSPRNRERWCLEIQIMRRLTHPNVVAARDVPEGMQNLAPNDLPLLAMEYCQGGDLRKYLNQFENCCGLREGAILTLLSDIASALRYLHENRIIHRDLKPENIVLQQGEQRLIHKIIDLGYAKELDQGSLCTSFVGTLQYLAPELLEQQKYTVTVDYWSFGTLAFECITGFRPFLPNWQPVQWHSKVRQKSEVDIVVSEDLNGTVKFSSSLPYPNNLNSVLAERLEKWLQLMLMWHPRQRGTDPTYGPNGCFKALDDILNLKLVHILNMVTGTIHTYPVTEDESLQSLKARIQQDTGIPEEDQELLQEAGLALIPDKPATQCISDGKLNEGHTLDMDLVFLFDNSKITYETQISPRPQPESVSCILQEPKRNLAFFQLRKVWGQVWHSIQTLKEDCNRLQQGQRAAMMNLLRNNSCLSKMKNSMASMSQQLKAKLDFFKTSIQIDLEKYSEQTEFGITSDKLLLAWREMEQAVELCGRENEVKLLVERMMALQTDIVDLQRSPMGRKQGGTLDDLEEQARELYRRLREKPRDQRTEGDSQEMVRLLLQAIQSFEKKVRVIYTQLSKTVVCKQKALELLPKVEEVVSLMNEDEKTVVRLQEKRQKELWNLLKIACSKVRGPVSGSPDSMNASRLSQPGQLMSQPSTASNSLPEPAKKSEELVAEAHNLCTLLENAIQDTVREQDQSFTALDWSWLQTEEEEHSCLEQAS
In words: IKK-β kinase inhibitory assay. Format: biochemical. The following applies: compounds as yielded by solid phase synthesis, purity about 40 to 90%, read-out: In vitro activity grade (In vitro IC50). The source says: [IKK-β Kinase Inhibitory Assay]
(1) Preparation of IKK-β Kinase Protein.
• A cDNA fragment encoding human IKK-β open reading frame was generated by PCR with the use of a pair of primers designed from the published sequence (Woronicz J D et al. (1997) Science 278, 866-869). A template was obtained from Quickclone cDNA (Clontech) using Elongase™ Amplification kit (Life Technologies). The DNA fragments generated by PCR were gel-purified and subcloned into pBluescript. The cDNA fragment cloned in pBluescript was inserted into pcDNA3.1/His C KpnI/NotI, and transferred into pVL1393 SmaI/XbaI (Pharmingen) to construct a baculovirus transfer vector. Then the vector, together with the linearized baculovirus (BaculoGold™, Pharmingen) was used to transfect Sf21 cells (Invitrogen, San Diego, Calif.). Generated recombinant baculovirus was cloned and amplified in Sf21 cells, grown in TNM-FH insect cell medium (Life Technologies, Inc.) supplemented with 10% FCS, […] Gentamycin, 0.1% Pluronic F-68 (Life Technologies, Inc.) as suspension culture (200 ml in 1 L Erlenmeyer flask; 27° C.; 130 rpm). Sf21 cells were infected with this amplified virus with a multiplicity of infection of 5 following standard protocols (Crossen R, Gruenwald S (1997) Baculovirus Expression Vector System Instruction Manual, Pharmingen Corporation) and harvested 48 hrs later. The cells were lysed to obtain the produced chimeric protein of IKK-β kinase fused by histidine (His-tagged IKK-beta). (2) The Preparation of Purified GST-IκBα Fusion Proteins • An expression vector containing the nucleotide sequence encoding fusion protein of GST with amino acid residues 1 to 54 of IκBα under the control of an IPTG-inducible promoter was constructed. The expression vector was introduced in E. coli and the transformant was cultured and lysed to obtain a GST-IκBα fusion protein. Then the resulting GST-IκBα fusion protein was purified and biotinated for kinase assay. (3) The Measurement of IKK-β Kinase Activity • The 96-well format kinase assay of IKK-β were performed to test the inhibitory activity of the compounds of the present invention. First, 5 μl of a test compound was put in the presence of 2.5% dimethyl sulfoxide (DMSO) in each well in a U-bottomed 96-well plate (Falcon). For control wells of background (BG) and total phosphorylation (TP), 5 μl of 2.5% DMSO was put. Recombinant IKK-β (final 0.6 μg/ml) and bio-GST-IκBα (1-54) (final 0.2 μM) were diluted in 25 μl of 2×kinase buffer β (40 mM Tris-HCl, pH 7.6, 40 mM MgCl2, 40 mM β-glycerophosphate, 40 mM p-nitrophenylphosphate, 2 mM EDTA, 40 mM creatine phosphate, 2 mM DTT, 2 mM Na3VO4, 0.2 mg/ml BSA and 0.8 mM phenylmethylsulfonyl fluoride) and transferred to the 96-well plate. Bio-GST-IκBα (1-54) in 25 μl of 2×kinase buffer β without IKK-β was transferred to BG wells. Then 20 μl of 12.5 μM ATP, 62.5 μCi/ml [γ-^33P] ATP (Amersham Pharmacia Biotech) was added and the resulting mixture was incubated for 2 hrs at room temperature. The kinase reactions were terminated by the addition of 150 μl of termination buffer (100 mM EDTA, 1 mg/ml BSA, 0.2 mg NaN3). One hundred and fifty μl of the sample were transferred to a streptavidin-coated, white MTP (Steffens Biotechniche Analysen GmbH #08114E14.FWD) to capture the biotinylated substrates. After 1 hr of incubation, non-bound radioactivity was eliminated by washing the wells five times with 300 μl of washing buffer including 0.9% NaCl and 0.1% (w/v) Tween-20 with the use of a MW-96 plate washer (BioTec). The bound radioactivity was determined after the addition of 170 μl MicroScint-PS scintillation cocktail (Packard) using a TopCount scintillation counter. [Syk Tyrosine Kinase Inhibitory Assay for Selectivity] (1) Preparation of Syk Protein • A cDNA fragment encoding human Syk openreading frame was cloned from total RNA of human Burkitt's lymphoma B cell lines, Raji (American Type Culture Collection), with the use of RT-PCR method.
As to `Nc1nc(-c2ccccc2O)cc2c1CNC2Cc1ccccc1` (stereo in doubt) [Example 20-3, 2-[(1S)-4-amino-1-benzyl-2,3-dihydro-1H-pyrrolo[3,4-c]pyridin-6-yl]phenol hydrochloride], the IC50 is less than 500 nM.
For `N#Cc1c(C2CCCNC2)cc(-c2ccccc2O)nc1N` (stereo not shown) [Example 1-1, 2-amino-6-(2-hydroxyphenyl)-4-(3-piperidinyl)-nicotinonitrile hydrochloride] the value was less than 500 nM; for `N#Cc1c(C2CCNC2)cc(-c2ccccc2O)nc1N` (stereo not shown) [Example 1-2, 2-amino-6-(2-hydroxyphenyl)-4-(3-pirrolidinyl)nicotinonitrile trifluoroacetate], less than 500 nM.
`CC1(c2cc(-c3ccccc3O)nc(N)c2C#N)CCCNC1` (stereo not shown) [Example 1-3, 2-amino-6-(2-hydroxyphenyl)-4-(3-methylpiperidin-3-yl)-nicotinonitrile hydrochloride]: the IC50 lay within 500 to 2000 nM.
Under `N#Cc1c(N)nc(-c2ccccc2O)c(F)c1C1CCCNC1` (stereo not shown) [Example 1-4, 2-amino-5-fluoro-6-(2-hydroxyphenyl)-4-(3-piperidinyl)-nicotinonitrile trifluoroacetate] stands less than 500 nM.
For `CNC1CCCC(c2cc(-c3ccccc3O)nc(N)c2C#N)C1` (stereo not shown) [Example 1-5, 2-amino-6-(2-hydroxyphenyl)-4-[3-methylamino]cyclohexyl]nicotinonitrile hydrochloride] the value was less than 500 nM; for `N#Cc1c(C2CCCNC2)cc(-c2ncccc2O)nc1N` (stereo not shown) [Example 1-6, 6-amino-3′-hydroxy-4-(3-piperidinyl)-2,2′-bipyridine-5-carbonitrile hydrochloride], less than 500 nM; for `N#Cc1c(C2CCCNC2)cc(-c2sccc2O)nc1N` (stereo not shown) [Example 1-7, 2-amino-6-(3-hydroxy-2-thienyl)-4-(3-piperidinyl)nicotinonitrile hydrobromide], less than 500 nM.
For `N#Cc1c(C2CCCC(C(=O)O)C2)cc(-c2ccccc2O)nc1N` (stereo not shown) [Example 1-8, 3-[2-amino-3-cyano-6-(2-hydroxyphenyl)-4-pyridinyl]cyclohexanecarboxylic acid], the IC50 is 500 to 2000 nM.
For `N#Cc1c(C2=CCCNC2)cc(-c2ccccc2O)nc1N` [Example 1-9, 2′-amino-6′-(2-hydroxyphenyl)-1,2,5,6-tetrahydro-3,4′-bipyridine-3′-carbonitrile hydrochloride] the value was less than 500 nM; for `N#Cc1c(C2CCCNC2)cc(-c2c(N)cccc2O)nc1N` (stereo not shown) [Example 1-10, 2-amino-6-(2-amino-6-hydroxyphenyl)-4-(3-piperidinyl)nicotinonitrile hydrochloride], 2000 to 10000 nM.
`N#Cc1c(C2CCCNC2)cc(-c2c(O)cccc2NCc2ccccc2)nc1N` (stereo not shown) [Example 1-11, 2-amino-6-[2-(benzylamino)-6-hydroxyphenyl]-4-(3-piperidinyl)nicotinonitrile hydrochloride]: the IC50 was in the range of 500 to 2000 nM.
For `CC(=O)Nc1cccc(O)c1-c1cc(C2CCCNC2)c(C#N)c(N)n1` (stereo not shown) [Example 1-12, N-{2-[6-amino-5-cyano-4-(3-piperidinyl)-2-pyridinyl]-3-hydroxyphenyl}acetamide hydrochloride] the value was 2000 to 10000 nM.
For `N#Cc1c(C2CCCNC2)cc(-c2c(O)cccc2O)nc1N` (stereo not shown) [Example 2-1, 2-amino-6-(2,6-dihydroxyphenyl)-4-(3-piperidinyl)nicotinonitrile hydrochloride] the value was less than 500 nM.
For `N#Cc1c(C2CCCNC2)cc(-c2c(O)cccc2OCc2ccccc2)nc1N` (stereo not shown) [Example 2-2, 2-amino-6-[2-(benzyloxy)-6-hydroxyphenyl]-4-(3-piperidinyl)nicotinonitrile hydrochloride], the half-maximal inhibitory concentration (IC50) was less than 500 nM.
For `N#Cc1c(C2CCNCC2)cc(-c2c(O)cccc2OCC2CC2)nc1N` [Example 2-3, hydrochloride] the value was less than 500 nM; for `CN1CCCC(c2cc(-c3c(O)cccc3OCC3CC3)nc(N)c2C#N)C1` (stereo not shown) [Example 3-1, 2-amino-6-[2-(cyclopropylmethoxy)-6-hydroxyphenyl]-4-(1-methyl-3-piperidinyl)nicotinonitrile], less than 500 nM; for `N#Cc1c(C2CCCN(Cc3ccccc3)C2)cc(-c2c(O)cccc2OCC2CC2)nc1N` (stereo not shown) [Example 3-2, 2-amino-4-(1-benzyl-3-piperidinyl)-6-[2-(cyclopropylmethoxy)-6-hydroxyphenyl]nicotinonitrile], 2000 to 10000 nM.
As for `N#Cc1c(C2CCCNC2)cc(-c2ccccc2O)nc1NCc1ccccc1` (stereo not shown) [Example 4-1, 2-(benzylamino)-6-(2-hydroxyphenyl)-4-(3-piperidinyl)nicotinonitrile hydrochloride], the IC50 is less than 500 nM.
On to `CCCNc1nc(-c2ccccc2O)cc(C2CCCNC2)c1C#N` (stereo not shown) [Example 4-2, 6-(2-hydroxyphenyl)-4-(3-piperidinyl)-2-(propylamino)nicotinonitrile hydrochloride], for which the IC50 lay in the range of 2000 to 10000 nM.
For `CNc1nc(-c2ccccc2O)cc(C2CCCNC2)c1C#N` (stereo not shown) [Example 4-3, 6-(2-hydroxyphenyl)-2-(methylamino)-4-(3-piperidinyl)nicotinonitrile hydrochloride] the value was 2000 to 10000 nM; for `N#Cc1c(C2CCCNC2)cc(-c2ccccc2O)nc1Nc1ccccc1` (stereo not shown) [Example 4-4, hydrochloride], more than 10000 nM; for `Nc1n[nH]c2nc(-c3ccccc3O)cc(C3CCCNC3)c12` (stereo not shown) [Example 5-1, 2-[3-amino-4-(3-piperidinyl)-1H-pyrazolo[3,4-b]pyridin-6-yl]phenol hydrochloride], 2000 to 10000 nM.
For `CC(=O)Nc1n[nH]c2nc(-c3ccccc3O)cc(C3CCCNC3)c12` (stereo not shown) [Example 5-2, N-[6-(2-hydroxyphenyl)-4-(3-piperidinyl)-1H-pyrazolo[3,4-b]pyridin-3-yl]acetamide hydrochloride] the value was more than 10000 nM; for `CC(=O)Nc1nc(-c2ccccc2O)cc(C2CCCNC2)c1C#N` (stereo not shown) [Example 6-1, N-[3-cyano-6-(2-hydroxyphenyl)-4-(3-piperidinyl)-2-pyridinyl]acetamide hydrochloride], less than 500 nM.
